Measured values reported in publication PMC9154192 (PLoS Biology, 2022).
Values after ≈ are worked out from the molar mass of the structure shown. Values joined by “and” are separate entries in the source; they are usually repeats but may differ in a detail not shown here. Equal entries are not always repeated. Where two headings read alike, the source gives them in different places.

What was measured:
XDR M. tuberculosis [1] = assay: Luminescence-based microbial cell viability assay; design: species or system Mycobacterium tuberculosis
M. xenopi = assay: microbe, parasite or virus in culture; assay type: cell-based; conditions: Mycobacterium xenopi
M. aubagnense = assay: microbe, parasite or virus in culture; assay type: cell-based, Mycobacterium aubagnense; conditions: Mycolicibacterium aubagnense
M. marseiliense = assay: microbe, parasite or virus in culture; assay type: cell-based; conditions: Mycobacterium
XDR M. tuberculosis [2] = assay type: cell-based, Mycobacterium tuberculosis
M. heraklionease = assay: microbe, parasite or virus in culture; assay type: cell-based; conditions: Mycobacterium
M. tuberculosis H37Rv [3] = assay: Luminescence-based microbial cell viability assay; design: species or system Mycobacterium tuberculosis; conditions: for RLU/50ul (replicates1-3), single values / RLU/ml (×100) / RLU/50ul (average): Fig 2C
M. bovis = assay: microbe, parasite or virus in culture; assay type: cell-based; conditions: Mycobacterium tuberculosis variant bovis
M. smegmatis = assay: microbe, parasite or virus in culture; assay type: cell-based, Mycobacterium smegmatis; conditions: Mycolicibacterium smegmatis
[4] = system: XDR M. tuberculosis (KMRC 00203–00197); assay type: cell-based, Mycobacterium tuberculosis
M. tuberculosis H37Rv [5] = assay: microbe, parasite or virus in culture; assay type: cell-based, Mycobacterium tuberculosis; conditions: Mycobacterium tuberculosis, H37RV; read-out: MIC
M. gordonae = assay: microbe, parasite or virus in culture; assay type: cell-based; conditions: Mycobacterium gordonae
M. kyorinense = assay: microbe, parasite or virus in culture; assay type: cell-based; conditions: Mycobacterium kyorinense
M. abscessus = assay: microbe, parasite or virus in culture; assay type: cell-based, Mycobacterium abscessus; conditions: Mycobacteroides abscessus
M. szulgai = assay: microbe, parasite or virus in culture; assay type: cell-based; conditions: Mycobacterium szulgai
in vitro [6] = assay type: cell-based, murine; conditions: mouse
Summary of the method: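 Cytotoxicity was assessed by MTT assay together with a WST-1 cell viability assay, both run according to previously described procedures.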

intestinal microbiome = assay: Gut microbiome, 16s rRNA gene-based metagenomics analysis of feces; assay type: in vivo, BALB/c mice; conditions: 30 mg/kg oral once a day for 7 days, BALB/c mice, feces
Protocol: Six-week-old BALB/c female mice were used for this study (6 mice for each group). Each drug was administered orally at 30 mg/kg once daily for 7 days. Stool was collected, and 16 rRNA gene-based metagenomics analysis was performed. Corn oil was used as the vehicle. The drug-free group received corn oil only. This animal experiment was conducted with the approval of the IACUC of the Soonchunhyang University (approval number: SCH21-0011). Microbiome analysis of collected feces was carried out as previously described with some modifications. Total DNA was extracted from the stool using the QIAamp DNA stool mini kit (Qiagen, Germany) after mechanical disruption using lysing matrix B tubes (MP Biomedicals, USA). V4 region of 16S RNA gene was amplified from extracted DNA with the following primers: forward primer ([…]) and reverse primer ([…]). PCR was performed using the Kappa HiFi hot start kit (KAPA Biosystems, USA) for 16s gene amplification and library preparation. A dsDNA HS assay kit and Qubit 4 fluorimeter (Invitrogen, USA) were used for DNA quantification. After each step, quality was checked using Agilent High Sensitivity DNA Kit and Agilent Bioanalyzer 2100 (Agilent Technologies, USA). Clean-up was performed using AMPure XP beads (Beckman Coulter, UK). The metagenomic library was prepared using a Nextera XT DNA Library Prep Kit (Illumina, USA) and loaded into an iSeq-100 reagent cartridge (Illumina, USA) together with a PhiX Control library (Illumina, USA). A 300-bp paired-end sequencing was performed on an iSeq-100 platform (Illumina, USA). Sequencing data were analyzed using the EzBioCloud server (Chunlab, Korea).

in vitro [7] = assay type: cell-based; conditions: human
Protocol: A549 human pulmonary epithelial cells (KCLB 10185), human embryonic kidney (HEK) 293 cells (KCLB 21573), human THP-1 leukemia cells (KCLB 40202), human neuroblastoma SH-SY5Y cells (KCLB 22266), Murine Raw 264.7 macrophages (KCLB 40071), and L929 murine fibroblasts (KCLB 10001) were purchased from the KCLB (Seoul, Korea). Cytotoxicity testing was performed using the MTT assay and the WST-1 cell viability assay as previously described.

M. arupense = assay: microbe, parasite or virus in culture; assay type: cell-based, Mycobacterium arupense; conditions: Mycolicibacter arupensis
M. peregrinum = assay: microbe, parasite or virus in culture; assay type: cell-based, Mycobacterium peregrinum; conditions: Mycolicibacterium peregrinum
M. tuberculosis H37Rv [8] = assay type: cell-based, Mycobacterium tuberculosis; conditions: H37Rv
M. marinum = assay: microbe, parasite or virus in culture; assay type: cell-based; conditions: Mycobacterium marinum
M. kansasii = assay: microbe, parasite or virus in culture; assay type: cell-based; conditions: Mycobacterium kansasii
M. bolletii = assay: microbe, parasite or virus in culture; assay type: cell-based, Mycobacterium bolletii; conditions: Mycobacteroides abscessus

NNC(=O)c1ccncc1 [INH, isoniazid, reference compound]
RLU/50ul (replicates1-3), single values (XDR M. tuberculosis [1]): 190 RLU/50ul and 260 RLU/50ul (2×) and 250 RLU/50ul and 280 RLU/50ul and 160 RLU/50ul (2×) and 150 RLU/50ul and 170 RLU/50ul and 540 RLU/50ul (2×) and 630 RLU/50ul (2×) and 530 RLU/50ul and 620 RLU/50ul and 670 RLU/50ul (2×) and 580 RLU/50ul and 690 RLU/50ul and 830 RLU/50ul (2×) and 790 RLU/50ul and 800 RLU/50ul and 880 RLU/50ul and 870 RLU/50ul and 750 RLU/50ul (2×)
antitubercular effect (XDR M. tuberculosis [1]): did not show a significant antitubercular effect
MIC (M. xenopi): 1.6 µg/mL (≈ 11.7 µM)
MIC (M. aubagnense): > 100 µg/mL
MIC (M. marseiliense): > 100 µg/mL
RFU/200 μl (replicates1-3), single values (XDR M. tuberculosis [2]): 29490 RFU/200 μl and 29760 RFU/200 μl and 24060 RFU/200 μl and 22090 RFU/200 μl and 22930 RFU/200 μl and 29240 RFU/200 μl and 29310 RFU/200 μl and 29280 RFU/200 μl and 29510 RFU/200 μl and 51780 RFU/200 μl and 52060 RFU/200 μl and 51260 RFU/200 μl and 49980 RFU/200 μl and 50610 RFU/200 μl and 51510 RFU/200 μl and 51660 RFU/200 μl and 51460 RFU/200 μl and 51820 RFU/200 μl and 56880 RFU/200 μl and 57100 RFU/200 μl and 53750 RFU/200 μl and 53730 RFU/200 μl and 46980 RFU/200 μl and 53520 RFU/200 μl and 53690 RFU/200 μl and 53460 RFU/200 μl and 56940 RFU/200 μl
RFU/ml (×104) (XDR M. tuberculosis [2]): 13.6 RFU/ml (×104) and 25.7 RFU/ml (×104) and 27.0 RFU/ml (×104)
antitubercular effect (XDR M. tuberculosis [2]): did not show a significant antitubercular effect
MIC (M. heraklionease): > 100 µg/mL
RLU/50ul (replicates1-3), single values (M. tuberculosis H37Rv [3]; drug conc. 0.19): 1310 RLU/50ul and 1170 RLU/50ul and 1890 RLU/50ul and 1990 RLU/50ul and 2130 RLU/50ul and 1740 RLU/50ul and 1790 RLU/50ul and 1620 RLU/50ul and 1290 RLU/50ul
RLU/ml (×100) (M. tuberculosis H37Rv [3]; drug conc. 0.19): 331.8 RLU/ml (×100)
RLU/50ul (average) (M. tuberculosis H37Rv [3]; drug conc. 0.19, average of each replicate set): 2003 RLU/50ul and 1717 RLU/50ul and 1257 RLU/50ul
RLU/50ul (replicates1-3), single values (M. tuberculosis H37Rv [3]; drug conc. 0.39): 340 RLU/50ul and 310 RLU/50ul (2×) and 220 RLU/50ul and 250 RLU/50ul and 320 RLU/50ul (3×) and 360 RLU/50ul
RLU/ml (×100) (M. tuberculosis H37Rv [3]; drug conc. 0.39): 61.1 RLU/ml (×100)
RLU/50ul (average) (M. tuberculosis H37Rv [3]; drug conc. 0.39, average of each replicate set): 263 RLU/50ul and 317 RLU/50ul and 337 RLU/50ul
RLU/50ul (replicates1-3), single values (M. tuberculosis H37Rv [3]; drug conc. 0.78): 120 RLU/50ul (3×) and 100 RLU/50ul and 130 RLU/50ul (2×) and 180 RLU/50ul and 150 RLU/50ul and 140 RLU/50ul
RLU/ml (×100) (M. tuberculosis H37Rv [3]; drug conc. 0.78): 26.4 RLU/ml (×100)
RLU/50ul (average) (M. tuberculosis H37Rv [3]; drug conc. 0.78, average of each replicate set): 143 RLU/50ul and 137 RLU/50ul and 117 RLU/50ul
concentration with significant antitubercular effect (M. tuberculosis H37Rv [3]; luminescence-based assay): 0.78 µg/mL and 0.39 µg/mL
MIC (M. bovis): 0.2 µg/mL (≈ 1.46 µM)
MIC (M. smegmatis): 25 µg/mL (≈ 182 µM)
CFU (replicates1-3), single values [4]: 6900 CFU and 40600 CFU and 43800 CFU and 52100 CFU and 37500 CFU and 35600 CFU and 31700 CFU and 15100 CFU and 27000 CFU and 106000 CFU and 157000 CFU and 148000 CFU and 98000 CFU and 61800 CFU and 75500 CFU and 71000 CFU and 87000 CFU and 97000 CFU
log reduction (CFU) ([4]; at 12.5 μg/ml, 7 days): 1.0
MIC (M. tuberculosis H37Rv [5]): 0.4 µg/mL (≈ 2.92 µM)
MIC (M. gordonae): > 100 µg/mL
MIC (M. kyorinense): 3.1 µg/mL (≈ 22.6 µM)
MIC (M. abscessus): > 100 µg/mL
MIC (M. szulgai): 1.6 µg/mL (≈ 11.7 µM)
CC50 (in vitro [6]; L929): > 500 µg/mL
CC50 (in vitro [6]; Raw264.7): > 500 µg/mL
beta set-significance analysis, pair-wise comparison of gut microbiome (intestinal microbiome): not significant
difference in phylum or class level taxa compared to drug-free group (intestinal microbiome): did not significantly differ
phylogenetic diversity compared to drug-free control group (intestinal microbiome): no significant change
CC50 (in vitro [7]; A549): > 500 µg/mL
CC50 (in vitro [7]; HEK-293): > 500 µg/mL
CC50 (in vitro [7]; SH-SY5Y): > 500 µg/mL
CC50 (in vitro [7]; THP-1): > 500 µg/mL
MIC (M. arupense): 50 µg/mL (≈ 365 µM)
MIC (M. peregrinum): 6.3 µg/mL (≈ 45.9 µM)
CFU/ml (average) (M. tuberculosis H37Rv [8]; Fig 3A, drug conc. 12.5): 2420 CFU/ml
Intracellular M. tuberculosis, % (Drug Free = 100.0) (M. tuberculosis H37Rv [8]; Fig 3A, drug conc. 12.5): 7.2%
CFU/ml (average) (M. tuberculosis H37Rv [8]; Fig 3A, drug conc. 25): 203 CFU/ml
Intracellular M. tuberculosis, % (Drug Free = 100.0) (M. tuberculosis H37Rv [8]; Fig 3A, drug conc. 25): 0.6%
CFU/ml (average) (M. tuberculosis H37Rv [8]; Fig 3B, drug conc. 12.5): 2120 CFU/ml
Intracellular M. tuberculosis, % (Drug Free = 100.0) (M. tuberculosis H37Rv [8]; Fig 3B, drug conc. 12.5): 6.3%
CFU/ml (average) (M. tuberculosis H37Rv [8]; Fig 3B, drug conc. 25): 133 CFU/ml
Intracellular M. tuberculosis, % (Drug Free = 100.0) (M. tuberculosis H37Rv [8]; Fig 3B, drug conc. 25): 0.4%
MIC (M. marinum): 25 µg/mL (≈ 182 µM)
MIC (M. kansasii): 0.2 µg/mL (≈ 1.46 µM)
MIC (M. bolletii): > 100 µg/mL
